In US11865126B2, “Method for treating anxiety disorders, headache disorders, and eating disorders with psilocybin” (priority 2019, dated 2024):

Test system: healthy subjects
Test: Life Changes Inventory (LCI)
Format: in vivo, human
Text: In some embodiments, the Life Changes Inventory (LCI) questionnaire is utilized to evaluate the safety and/or efficacy of psilocybin. The LCI is designed as a questionnaire to investigate those variables present in the day-to-day experience of adults that might relate either to stability or decline of intellectual ability.
The following list of outcome measures are non-exhaustive. • a. The short-term change from Baseline (Day −1 [Visit 2]) to Day 7 (Visit 5) in cognitive measures of attention, spatial and working memory and executive function was measured by a composite score of the CANTAB Panel (Spatial Working Memory [SWM], Rapid Visual Information Processing [RVP], Paired Associates Learning [PAL]). • b. The short-term change from Baseline (Day −1 [Visit 2]) to Day 7 (Visit 5) in Social Cognition Panel scales (Pictorial Empathy Test [PET], Reading the Mind in the Eyes Test [RMET], Toronto Empathy Questionnaire [TEQ], Social Value Orientation [SVO], Scale of Social Responsibility [SSR]). • c. The change from Baseline (Day −1 [Visit 2]) to Day 28 (Visit 6) in cognitive measures of attention, spatial and working memory and executive function as measured by a composite score of the CANTAB Panel (SWM, RVP, PAL). • d. The long-term change from Baseline (Day −1 [Visit 2]) to Day 84 (Visit 7) in Social Cognition Panel scales (PET, RMET, TEQ, SVO, SSR). • e. Dose-related differences between cognitive effects of psilocybin at Baseline (Day −1 [Visit 2]), Day 7 (Visit 5) and Day 28 (Visit 6), as measured by a composite score of the CANTAB Panel (SWM, RVP, PAL). • f. Dose-related differences between psychological effects of psilocybin at Baseline (Day −1 [Visit 2]), Day 7 (Visit 5) and Day 84 (Visit 7), as measured by Social Cognition Panel scales (PET, RMET, TEQ, SVO, SSR). • g. Differences in cognitive effects of psilocybin between psilocybin-naïve and experienced subjects at Baseline (Day −1 [Visit 2]), Day 7 (Visit 5) and Day 28 (Visit 6), as measured by a composite score of the CANTAB Panel (SWM, RVP, PAL). • h. Differences in Positive and Negative Affect Schedule (PANAS) after study drug administration on Day 0 (Visit 3). • i. Differences between psilocybin and placebo in the Emotion Recognition Test (ERT), Intra-Extra Dimensional Set Shift (IED), One Touch Stockings (OTS), Verbal Fluency and Digit Span Forward at Day 7 (Visit 5). • j. A composite score of the CANTAB Panel, including the following tests: • i. Spatial Working Memory (SWM) (performed at Visit 2, Visit 5, and Visit 6). • ii. Rapid Visual Information Processing (RVP) (performed at Visit 2, Visit 5, and Visit 6). • iii. Paired Associates Learning (PAL) (performed at Visit 2, Visit 5, and Visit 6). • k. Cognitive Flexibility Panel • i. Emotion Recognition Task (ERT) (performed at Visit 5). • ii. Intra-Extra Dimensional Set Shift (IED) (performed at Visit 5). • iii. One Touch Stockings (OTS) (performed at Visit 5). • iv. Verbal Fluency (performed at Visit 5). • v. Digit Span Forward (performed at Visit 5). • l. Five Dimension Altered States of Consciousness questionnaire (5D-ASC) (performed at Visit 3). • m. PANAS (performed at Visit 2 and Visit 3). • n. NEO-Five Factor Inventory (NEO-FFI) (performed at Visit 2, Visit 5, and Visit 7). • o. Symptom Checklist-90 item (SCL-90) (performed at Visit 2, Visit 5, and Visit 7). • p. Life Changes Inventory (LCI): The LCI measures changes in attitudes and values after near-death experiences often used to evaluate personal transformation following spiritually oriented experiences and practices. (performed at Visit 5 and Visit 7). • q. Social Cognition Panel scales • i. Pictorial Empathy Test (PET) (performed at Visit 2, Visit 5, and Visit 7). • ii. Reading the Mind in the Eyes Test (RMET) (performed at Visit 2, Visit 5, and Visit 7). • iii. Social Value Orientation (SVO) (performed at Visit 2, Visit 5, and Visit 7). • iv. Toronto Empathy Questionnaire (TEQ) (performed at Visit 2, Visit 5, and Visit 7). • v. […]

## CN(C)CCc1c[nH]c2cccc(OP(=O)(O)O)c12 [psilocybin]
10 mg psilocybin, Day 7 (Example 19)
  LCI Self-Acceptance Scores (LS mean): 0.8
10 mg psilocybin, Day 84 (Example 19)
  LCI Self-Acceptance Scores (LS mean): 0.6
25 mg psilocybin, Day 7 (Example 19)
  LCI Self-Acceptance Scores (LS mean): 0.6
25 mg psilocybin, Day 84 (Example 19)
  LCI Self-Acceptance Scores (LS mean): 0.6
Day 7
  LCI - absolute change, difference Psilocybin 10 mg - Placebo: 0.4
  LCI - absolute change, difference Psilocybin 25 mg - Placebo: 0.3
  LCI - absolute change, difference Psilocybin (25 mg-10 mg): −0.1
  LCI appreciation for life, difference Psilocybin 10 mg - Placebo: 0.6
  LCI appreciation for life, difference Psilocybin 25 mg - Placebo: 0.5
  LCI appreciation for life, difference Psilocybin (25 mg-10 mg): −0.2
  LCI appreciation of death, difference Psilocybin 10 mg - Placebo: 0.1
  LCI appreciation of death, difference Psilocybin 25 mg - Placebo: 0.1
  LCI appreciation of death, difference Psilocybin (25 mg-10 mg): −0.0
  LCI concern for others, difference Psilocybin 10 mg - Placebo: 0.4
  LCI concern for others, difference Psilocybin 25 mg - Placebo: 0.4
  LCI concern for others, difference Psilocybin (25 mg-10 mg): 0.0
  LCI concern for worldly achievement, difference Psilocybin 10 mg - Placebo: −0.2
  LCI concern for worldly achievement, difference Psilocybin 25 mg - Placebo: −0.1
  LCI concern for worldly achievement, difference Psilocybin (25 mg-10 mg): 0.1
  LCI concern social, difference Psilocybin 10 mg - Placebo: 0.1
  LCI concern social, difference Psilocybin 25 mg - Placebo: 0.2
  LCI concern social, difference Psilocybin (25 mg-10 mg): 0.1
  LCI quest for meaning, difference Psilocybin 10 mg - Placebo: 0.4
  LCI quest for meaning, difference Psilocybin 25 mg - Placebo: 0.4
  LCI quest for meaning, difference Psilocybin (25 mg-10 mg): 0.0
  LCI religiousness, difference Psilocybin 10 mg - Placebo: −0.1
  LCI religiousness, difference Psilocybin 25 mg - Placebo: 0.0
  LCI religiousness, difference Psilocybin (25 mg-10 mg): 0.1
  LCI self-acceptance, difference Psilocybin 10 mg - Placebo: 0.7
  LCI self-acceptance, difference Psilocybin 25 mg - Placebo: 0.5
  LCI self-acceptance, difference Psilocybin (25 mg-10 mg): −0.1
  LCI spirituality, difference Psilocybin 10 mg - Placebo: 0.3
  LCI spirituality, difference Psilocybin 25 mg - Placebo: 0.2
  LCI spirituality, difference Psilocybin (25 mg-10 mg): −0.1
Day 84
  LCI - absolute change, difference Psilocybin 10 mg - Placebo: 0.4
  LCI - absolute change, difference Psilocybin 25 mg - Placebo: 0.4
  LCI - absolute change, difference Psilocybin (25 mg-10 mg): −0.0
  LCI appreciation for life, difference Psilocybin 10 mg - Placebo: 0.6
  LCI appreciation for life, difference Psilocybin 25 mg - Placebo: 0.5
  LCI appreciation for life, difference Psilocybin (25 mg-10 mg): −0.1
  LCI appreciation of death, difference Psilocybin 10 mg - Placebo: 0.2
  LCI appreciation of death, difference Psilocybin 25 mg - Placebo: 0.2
  LCI appreciation of death, difference Psilocybin (25 mg-10 mg): 0.0
  LCI concern for others, difference Psilocybin 10 mg - Placebo: 0.4
  LCI concern for others, difference Psilocybin 25 mg - Placebo: 0.5
  LCI concern for others, difference Psilocybin (25 mg-10 mg): 0.1
  LCI concern for worldly achievement, difference Psilocybin 10 mg - Placebo: −0.2
  LCI concern for worldly achievement, difference Psilocybin 25 mg - Placebo: −0.1
  LCI concern for worldly achievement, difference Psilocybin (25 mg-10 mg): 0.1
  LCI concern social, difference Psilocybin 10 mg - Placebo: 0.1
  LCI concern social, difference Psilocybin 25 mg - Placebo: 0.1
  LCI concern social, difference Psilocybin (25 mg-10 mg): 0.0
  LCI quest for meaning, difference Psilocybin 10 mg - Placebo: 0.4
  LCI quest for meaning, difference Psilocybin 25 mg - Placebo: 0.4
  LCI quest for meaning, difference Psilocybin (25 mg-10 mg): −0.0
  LCI religiousness, difference Psilocybin 10 mg - Placebo: −0.0
  LCI religiousness, difference Psilocybin 25 mg - Placebo: 0.0
  LCI religiousness, difference Psilocybin (25 mg-10 mg): 0.1
  LCI self-acceptance, difference Psilocybin 10 mg - Placebo: 0.5
  LCI self-acceptance, difference Psilocybin 25 mg - Placebo: 0.5
  LCI self-acceptance, difference Psilocybin (25 mg-10 mg): 0.0
  LCI spirituality, difference Psilocybin 10 mg - Placebo: 0.4
  LCI spirituality, difference Psilocybin 25 mg - Placebo: 0.4
  LCI spirituality, difference Psilocybin (25 mg-10 mg): −0.0
